Results reported in a melting point compilation (Tetko et al.; mined from patent text by program, amines drawn as free bases though some values may be those of a salt).

Compound | melting point [°C]
Cc1cccc(S(=O)(=O)n2cncn2)c1C#N | 142 to 144
Nc1cc[nH]c(=O)c1Br | 255 to 258
CCCOc1ncc(NC(=O)N(C)C)cc1-c1nc2c(CCC)nn(C)c2c(=O)[nH]1 | 219 to 220
CN1CCc2c(Cl)ccc3c4c(n(c23)CC1)CCC4 | 138 to 140
Cc1cc(N)nc(CCc2nc3cc(-c4ccc(S(=O)(=O)N(C)C)cc4)cnc3[nH]2)c1 | 157
Cc1ccc(-c2c(Cl)nc(C#N)n2S(=O)(=O)c2c(C)noc2C)cc1 | 103 to 108
CS(=O)(=O)c1ccc(-c2cnn(-c3ccc(Cl)s3)c(=O)c2-c2ccc(Cl)cc2)cc1 | 249 to 251
COc1ccc(Br)c2ccc(C(F)(F)F)nc12 | 84 to 85
COc1ccc(C=O)c(Br)c1O | 80 to 81.5
CC(=O)c1nc(-c2ccncc2)[nH]c1C | 181 to 183
CC(=O)Nc1n[nH]c(C(C)(C)C)c1Br | 234 to 235
CCOC(=O)c1cc(CCc2cc3c(s2)-n2c(C)nnc2CN=C3c2ccccc2Cl)ccc1CC(=O)O | 128 to 132
COc1ccc2c(c1)C13CCCOC1(C)C(C2)N(C(=O)C1CCC1)CC3 (configuration not stated) | 166 to 167
CCCCn1c(COCC)nc2c(N)nc3ccc(Br)cc3c21 | 182 to 183
CC1(C2CCC3C4CC=C5CC(O)CC(O)C5(C)C4CCC32C)OCCO1 (configuration not stated) | 203 to 207
Cc1nn(C)c2cnc(-c3ccc(C(F)(F)F)cc3)nc12 | 286 to 289
CON=C(C(C)=O)C(=O)OC | 64.4
COc1ccc(-c2nc(CN(C)C)nc3sc(C)c(C)c23)cc1OC | 118 to 120
CC(=O)CSc1nnnn1C | 31
Cc1ccc(-c2ccc(C(=O)Nc3ccc4cc(CN5CCCC5)cnc4c3C)cc2)cc1 | 177 to 179
CN1CC(C(=O)NC2NCCS2)CC2c3ccc(C(C)(C)C)c4[nH]cc(c34)CC21 (configuration not stated) | 243 to 247
CCOC(=O)c1cnc2c(c(C)nc3cc(C)nn32)c1NC(C)CC (configuration not stated) | 113 to 115
CCOC(=O)c1cc2ccc(Cl)c(NS(=O)(=O)c3cccs3)c2[nH]1 | 191 to 192
CC(N)Cn1ncc2ccc3oc(C(=O)NCC(C)O)cc3c21 (configuration not stated) | 190 to 191

Other lines, results leading:

melting point [°C] | Compound
107 to 108 | CCOC(=O)C(C#N)=C(NCc1ccccc1)NCC1CN(Cc2ccc(F)cc2)CCO1 (configuration not stated)
127 | O=C(C=Cc1ccc(COC2OC(CO)C(O)C(O)C2O)o1)c1ccccc1 (configuration not stated)
> 300 | O=C(O)c1cn(C2CC2)c2nc(N3Cc4ccccc4C3)c(F)cc2c1=O
194 to 195 | COc1nc(Cl)nc2c1c(C#N)cn2C1OC(CO)C(O)C1O (configuration not stated)
111 | COc1ccc(C2CC(c3ccccc3)=NN2c2ccc(S(N)(=O)=O)cc2)cc1 (configuration not stated)
63 to 64 | CCCCNC(=O)Oc1ccc(Oc2ccc(OC)cc2)cc1
126 to 128 | CCCn1c(=O)c2c(N)n(CCCl)nc2n(Cc2ccccc2)c1=O
95 to 118 | CC12CC(F)C3c4ccc(O)cc4CC(CCCCCN4CCCC4)C3C1CCC2O (configuration not stated)
76 to 78 | COc1ccc(C(=O)c2ccc(CBr)cc2)cc1
256 to 258 | Cn1cc(C2=C(c3cn(CCC(=O)O)c4ccccc34)C(=O)NC2=O)c2ccccc21
193 to 196 | COC(=O)c1ccc(CN2C(=O)CCc3c(CC4SC(=O)NC4=O)ccc(OC)c32)cc1 (configuration not stated)
239 to 241 | O=C1Nc2ccccc2SC(c2ccccc2)=C1Cl
106 to 110 | NC(Oc1ccccc1)C(O)CCCNc1ccc(Br)cc1 (configuration not stated)
127 to 128 | O=C(NC1CCOCC1)c1cccc(-c2cccc3cc(Cc4cc(F)cc(Cl)c4)sc23)c1
120 to 121 | COC(=O)c1ccccc1OCC(O)CN1CCN(c2ccccc2OC)CC1 (configuration not stated)
78 to 80 | C#Cc1cnc2ccc(OC(SC)C(=O)NC(C)(C#N)CO)cc2c1 (configuration not stated)
125 to 130 | CCOC(=O)C1=C(COCCO)NC(C)=C(C(=O)OC)C1c1ccccc1Cl (configuration not stated)
99 to 101 | COC(=O)CCc1ccc(N2CCN(CCCCC#N)C2=O)cc1
150 to 151 | COC(=O)C1=C2CCC(c3ccccc3)CN2CCC1=O (configuration not stated)
166 to 168 | COC(=O)/C(=C/C=C/c1cc2cc(Cl)ccc2[nH]1)OC
132 to 133 | CC(=O)OCc1cc2cc(OCc3ccccc3)ccc2n1Cc1ccc(C(C)(C)C)cc1
118 to 119 | Fc1ccccc1CC1CCN(C2CC=C(c3ccc4c(c3)OCO4)CC2)CC1 (configuration not stated)
120 to 122 | O=C(O)CCCN(C(=O)c1ccc(F)cc1)c1ccccc1-c1ccccc1
268 to 280 | Cc1cc2c(C(=O)O)ccc(C(=O)O)c2cc1C
181 to 182 | CCN1c2ncc(COc3cccc(C(=O)O)c3)cc2C(=O)N(C)c2ccc(Cl)nc21
101 to 104 | CCc1ccc(NC(=O)Nc2cc(C(C)(C)C)sc2C(=O)NC)cc1
186 to 194 | O=Cc1cn(C(c2ccccc2)(c2ccccc2)c2ccccc2)cn1
126 to 128 | CN(C)c1ccc(C(=O)Cc2cccc(Cl)c2)cc1
